Measured values taken from PubChem BioAssay (NCI).
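48-hour exposure; five concentrations; linearly interpolated endpoints. At the GI50, growth is halved. TGI denotes the concentration required for complete inhibition of growth.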

Experiments:
Experiment in all cases: NCI-60 cell line screen, 48 h
U251 CNS = test system: U251 CNS
SNB-19 CNS = test system: SNB-19 CNS
UO-31 renal = test system: UO-31 renal
SF-539 CNS = test system: SF-539 CNS
COLO 205 colon = test system: COLO 205 colon
ACHN renal = test system: ACHN renal
T-47D breast = test system: T-47D breast
SK-MEL-28 melanoma = test system: SK-MEL-28 melanoma
M14 melanoma = test system: M14 melanoma
UACC-257 melanoma = test system: UACC-257 melanoma
HCC-2998 colon = test system: HCC-2998 colon
A498 renal = test system: A498 renal
OVCAR-3 ovarian = test system: OVCAR-3 ovarian
HOP-92 NSCLC = test system: HOP-92 NSCLC
SF-268 CNS = test system: SF-268 CNS
EKVX NSCLC = test system: EKVX NSCLC
SNB-75 CNS = test system: SNB-75 CNS
NCI-H460 lung = test system: NCI-H460 lung
NCI-H23 lung = test system: NCI-H23 lung
IGROV1 ovarian = test system: IGROV1 ovarian
MDA-MB-435 = test system: MDA-MB-435
SN12C renal = test system: SN12C renal
SK-MEL-5 melanoma = test system: SK-MEL-5 melanoma
A549 NSCLC = test system: A549 NSCLC
UACC-62 melanoma = test system: UACC-62 melanoma
786-0 renal = test system: 786-0 renal
PC-3 prostate = test system: PC-3 prostate
LOX IMVI melanoma = test system: LOX IMVI melanoma
NCI/ADR-RES ovarian = test system: NCI/ADR-RES ovarian
CCRF-CEM leukemia = test system: CCRF-CEM leukemia
OVCAR-5 ovarian = test system: OVCAR-5 ovarian
HL-60(TB) leukemia = test system: HL-60(TB) leukemia
HCT-15 colon = test system: HCT-15 colon
CAKI-1 renal = test system: CAKI-1 renal
RPMI-8226 leukemia = test system: RPMI-8226 leukemia
NCI-H226 lung = test system: NCI-H226 lung
TK-10 renal = test system: TK-10 renal
DU-145 prostate = test system: DU-145 prostate
HT29 colon = test system: HT29 colon
KM12 colon = test system: KM12 colon
SW-620 colon = test system: SW-620 colon
HOP-62 NSCLC = test system: HOP-62 NSCLC
OVCAR-8 ovarian = test system: OVCAR-8 ovarian
HS 578T breast = test system: HS 578T breast
HCT-116 colon = test system: HCT-116 colon
MCF7 breast = test system: MCF7 breast
BT-549 breast = test system: BT-549 breast
SK-OV-3 ovarian = test system: SK-OV-3 ovarian
RXF 393 renal = test system: RXF 393 renal
SK-MEL-2 melanoma = test system: SK-MEL-2 melanoma
SF-295 CNS = test system: SF-295 CNS
MDA-MB-231 breast = test system: MDA-MB-231 breast

Structure (SMILES): COc1ccc(C(=O)C(CN(C)C)CN(C)C)cc1
- GI50 (U251 CNS): 14.2 µM
- TGI (U251 CNS): 34.1 µM
- GI50 (SNB-19 CNS): 16.3 µM
- TGI (SNB-19 CNS): 33.1 µM
- GI50 (UO-31 renal): 1.37 µM
- TGI (UO-31 renal): 2.91 µM
- GI50 (SF-539 CNS): 7.6 µM
- TGI (SF-539 CNS): 20.7 µM
- GI50 (COLO 205 colon): 1.11 µM
- TGI (COLO 205 colon): 2.32 µM
- GI50 (ACHN renal): 1.56 µM
- TGI (ACHN renal): 2.93 µM
- GI50 (T-47D breast): 1.86 µM
- TGI (T-47D breast): 5.28 µM
- GI50 (SK-MEL-28 melanoma): 12.6 µM
- TGI (SK-MEL-28 melanoma): 27.3 µM
- GI50 (M14 melanoma): 3.53 µM
- TGI (M14 melanoma): 13.5 µM
- GI50 (UACC-257 melanoma): 2.14 µM
- TGI (UACC-257 melanoma): 8.48 µM
- GI50 (HCC-2998 colon): 15.9 µM
- TGI (HCC-2998 colon): 30 µM
- GI50 (A498 renal): 18.6 µM
- TGI (A498 renal): 32.7 µM
- GI50 (OVCAR-3 ovarian): 1.29 µM
- TGI (OVCAR-3 ovarian): 2.57 µM
- GI50 (HOP-92 NSCLC): 2.4 µM
- TGI (HOP-92 NSCLC): 9.84 µM
- GI50 (SF-268 CNS): 13.7 µM
- TGI (SF-268 CNS): 42.3 µM
- GI50 (EKVX NSCLC): 13.7 µM
- TGI (EKVX NSCLC): 51.1 µM
- GI50 (SNB-75 CNS): 11.4 µM
- TGI (SNB-75 CNS): 26.5 µM
- GI50 (NCI-H460 lung): 19.2 µM
- TGI (NCI-H460 lung): 40.1 µM
- GI50 (NCI-H23 lung): 14.2 µM
- TGI (NCI-H23 lung): 41 µM
- GI50 (IGROV1 ovarian): 15.4 µM
- TGI (IGROV1 ovarian): 39.2 µM
- GI50 (MDA-MB-435): 2.84 µM
- TGI (MDA-MB-435): 8.58 µM
- GI50 (SN12C renal): 12.6 µM
- TGI (SN12C renal): 56.4 µM
- GI50 (SK-MEL-5 melanoma): 15.3 µM
- TGI (SK-MEL-5 melanoma): 29 µM
- GI50 (A549 NSCLC): 19.1 µM
- TGI (A549 NSCLC): 43.4 µM
- GI50 (UACC-62 melanoma): 5.27 µM
- TGI (UACC-62 melanoma): 19.4 µM
- GI50 (786-0 renal): 3.87 µM
- TGI (786-0 renal): 16.1 µM
- GI50 (PC-3 prostate): 13.2 µM
- TGI (PC-3 prostate): 29.9 µM
- GI50 (LOX IMVI melanoma): 2.08 µM
- TGI (LOX IMVI melanoma): 5.04 µM
- GI50 (NCI/ADR-RES ovarian): 2.6 µM
- TGI (NCI/ADR-RES ovarian): 6.42 µM
- GI50 (CCRF-CEM leukemia): 1.39 µM
- TGI (CCRF-CEM leukemia): 5.13 µM
- GI50 (OVCAR-5 ovarian): 12.6 µM
- TGI (OVCAR-5 ovarian): 30.8 µM
- GI50 (HL-60(TB) leukemia): 0.116 µM
- TGI (HL-60(TB) leukemia): 1.87 µM
- GI50 (HCT-15 colon): 2.47 µM
- TGI (HCT-15 colon): 6.85 µM
- GI50 (CAKI-1 renal): 1.89 µM
- TGI (CAKI-1 renal): 3.56 µM
- GI50 (RPMI-8226 leukemia): 2.45 µM
- TGI (RPMI-8226 leukemia): 6.67 µM
- GI50 (NCI-H226 lung): 16.9 µM
- TGI (NCI-H226 lung): 37.6 µM
- GI50 (TK-10 renal): 2.32 µM
- TGI (TK-10 renal): 6.98 µM
- GI50 (DU-145 prostate): 3.21 µM
- TGI (DU-145 prostate): 9.93 µM
- GI50 (HT29 colon): 2.3 µM
- TGI (HT29 colon): 5.77 µM
- GI50 (KM12 colon): 11.9 µM
- TGI (KM12 colon): 27.3 µM
- GI50 (SW-620 colon): 1.78 µM
- TGI (SW-620 colon): 3.98 µM
- GI50 (HOP-62 NSCLC): 17.8 µM
- TGI (HOP-62 NSCLC): 32.9 µM
- GI50 (OVCAR-8 ovarian): 3.14 µM
- TGI (OVCAR-8 ovarian): 22.4 µM
- GI50 (HS 578T breast): 17.3 µM
- TGI (HS 578T breast): 56.3 µM
- GI50 (HCT-116 colon): 1.3 µM
- TGI (HCT-116 colon): 2.63 µM
- GI50 (MCF7 breast): 2.73 µM
- TGI (MCF7 breast): 12.3 µM
- GI50 (BT-549 breast): 15.3 µM
- TGI (BT-549 breast): 28.8 µM
- GI50 (SK-OV-3 ovarian): 20.2 µM
- TGI (SK-OV-3 ovarian): 59.5 µM
- GI50 (RXF 393 renal): 1.55 µM
- TGI (RXF 393 renal): 3.8 µM
- GI50 (SK-MEL-2 melanoma): 16.7 µM
- TGI (SK-MEL-2 melanoma): 36.8 µM
- GI50 (SF-295 CNS): 21.2 µM
- TGI (SF-295 CNS): 52.2 µM
- GI50 (MDA-MB-231 breast): 14.6 µM
- TGI (MDA-MB-231 breast): 36.6 µM

Structure (SMILES): C#CC[C@@H]1C[C@]2(C)[C@H]3CC[C@@H]4[C@H]5C(C(=C)C)CC[C@]5(C(=O)NCCCN5CCN(CCCN)CC5)CC[C@@]4(C)[C@]3(C)CC[C@H]2C(C)(C)[C@H]1OC(C)=O (stereo partly specified)
- GI50 (OVCAR-5 ovarian): 1.58 µM
- TGI (OVCAR-5 ovarian): 2.95 µM
